Assay results: patent US20080194482A1, “Selective Apac2 Receptor Peptide Agonists” (priority 2005, published 2008)
Square brackets hold non-standard residues; d marks the D form. Peptide text beside a SMILES is read from it. * marks the point of attachment. Orn = NCCC[C@H](N)C(=O)O; Hexanoyl = CCCCCC(=O)*; Aib = CC(C)(N)C(=O)O

Columns and labels:
rat VPAC2 receptor = target: T1, rat VPAC2 receptor (Rattus norvegicus, UniProt P35000); test: DiscoveRx cAMP assay, in vitro potency at rat VPAC2 receptor; type: cell-based; conditions: CHO-PO cells transiently transfected with rat VPAC2; cAMP generation; mean of two independent runs
T1 construct: expressed in transfected cells; host or cells: CHO-PO (transient, Lipofectamine)
T1 sequence (P35000 23-437): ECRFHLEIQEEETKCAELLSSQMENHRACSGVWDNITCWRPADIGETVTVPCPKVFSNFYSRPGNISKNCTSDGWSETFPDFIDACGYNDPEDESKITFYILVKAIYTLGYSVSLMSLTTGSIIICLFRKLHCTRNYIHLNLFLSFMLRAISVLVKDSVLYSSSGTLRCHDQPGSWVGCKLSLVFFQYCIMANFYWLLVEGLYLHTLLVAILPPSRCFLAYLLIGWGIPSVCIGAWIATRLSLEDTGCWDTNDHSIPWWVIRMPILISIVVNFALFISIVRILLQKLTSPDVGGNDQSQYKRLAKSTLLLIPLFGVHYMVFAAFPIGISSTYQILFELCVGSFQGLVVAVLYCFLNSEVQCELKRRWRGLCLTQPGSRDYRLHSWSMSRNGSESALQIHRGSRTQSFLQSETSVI
Protocol: DiscoveRx: CHO-PO cells are transiently transfected with rat VPAC1 or VPAC2 receptor DNA using commercially available transfection reagents (Lipofectamine from Invitrogen). The cells are seeded at a density of 10,000/well in a 96-well plate and are allowed to grow for 3 days in […] culture medium. At day 3, the assay is performed.
On the day of the experiment, the medium is removed. Also, the cells are washed twice. The cells are incubated in assay buffer plus IBMX for 15 minutes at room temperature. Afterwards, the stimuli are added and are dissolved in assay buffer. The stimuli are present for 30 minutes. Then, the assay buffer is gently removed. The cell lysis reagent of the DiscoveRx cAMP kit is added. Thereafter, the standard protocol for developing the cAMP signal as described by the manufacturer is used (DiscoveRx Inc., USA). EC50 values for cAMP generation are calculated from the raw signal or are based on absolute cAMP levels as determined by a standard curve performed on each plate.
Results for each agonist are the mean of two independent runs. Rat VPAC1 and VPAC2 results are only generated using the DiscoveRx assay.

human VPAC1 = target: T2, human VPAC1 (Homo sapiens, UniProt P32241); test: Filter binding assay, 125I-labeled VIP tracer, VPAC1 membranes; conditions: read-out: Human VPAC1 Receptor Binding (IC50; nM)
T2 construct: expressed in transfected cells
T2 sequence (P32241 31-457): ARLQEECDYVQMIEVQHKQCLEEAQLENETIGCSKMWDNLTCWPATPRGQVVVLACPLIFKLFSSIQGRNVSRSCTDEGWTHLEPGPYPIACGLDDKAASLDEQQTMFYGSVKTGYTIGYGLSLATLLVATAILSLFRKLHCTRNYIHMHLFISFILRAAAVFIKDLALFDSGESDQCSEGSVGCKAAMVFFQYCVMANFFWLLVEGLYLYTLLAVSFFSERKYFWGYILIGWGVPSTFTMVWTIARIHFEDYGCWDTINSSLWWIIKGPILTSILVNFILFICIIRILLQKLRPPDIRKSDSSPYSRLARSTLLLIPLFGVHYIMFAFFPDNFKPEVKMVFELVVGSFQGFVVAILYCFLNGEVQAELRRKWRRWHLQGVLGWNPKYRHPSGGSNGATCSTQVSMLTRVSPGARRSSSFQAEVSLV

human VPAC2 [1] = target: T3, human VPAC2 (Homo sapiens, UniProt P41587); test: Filter binding assay, 125I-labeled VIP tracer, VPAC2 membranes; conditions: read-out: Human VPAC2 Receptor Binding (IC50; nM)
T3 construct: expressed in transfected cells
T3 sequence (P41587 24-438): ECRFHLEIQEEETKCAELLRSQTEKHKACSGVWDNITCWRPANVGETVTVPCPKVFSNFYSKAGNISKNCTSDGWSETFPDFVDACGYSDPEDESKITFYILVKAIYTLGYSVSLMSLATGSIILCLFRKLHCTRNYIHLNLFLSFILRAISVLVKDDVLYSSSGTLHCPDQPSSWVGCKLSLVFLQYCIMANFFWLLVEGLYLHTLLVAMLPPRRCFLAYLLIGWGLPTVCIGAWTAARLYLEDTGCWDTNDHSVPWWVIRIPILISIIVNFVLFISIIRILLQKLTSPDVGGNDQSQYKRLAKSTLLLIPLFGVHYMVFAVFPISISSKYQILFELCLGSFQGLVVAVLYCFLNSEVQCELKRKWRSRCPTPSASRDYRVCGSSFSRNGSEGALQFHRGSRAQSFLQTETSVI

human VPAC2 [2] = target: T3, human VPAC2; test: Alpha screen cAMP assay, in vitro potency at human VPAC2 receptor; type: cell-based; conditions: cAMP generation; single result from two analyses in a single run, some values average of more than one experiment
Protocol: Alpha screen: Cells are washed in the culture flask once with PBS. Then, the cells are rinsed with enzyme free dissociation buffer. The dissociated cells are removed. The cells are then spun down and washed in stimulation buffer. For each data point, 50,000 cells suspended in stimulation buffer are used. To this buffer, Alpha screen acceptor beads are added along with the stimuli. This mixture is incubated for 60 minutes. Lysis buffer and Alpha screen donor beads are added and are incubated for 60 to 120 minutes. The Alpha screen signal (indicative of intracellular cAMP levels) is read in a suitable instrument (e.g. AlphaQuest from Perkin-Elmer). Steps including Alpha screen donor and acceptor beads are performed in reduced light. The EC50 for cAMP generation is calculated from the raw signal or is based on absolute cAMP levels as determined by a standard curve performed on each plate.
Results for each agonist are, at minimum, from two analyses performed in a single run. For some agonists, the results are the mean of more than one run. The tested peptide concentrations are: 10000, 1000, 100, 10, 3, 1, 0.1, 0.01, 0.003, 0.001, 0.0001 and 0.00001 nM.

[3] = Rat serum stability (activity remaining, CHO-VPAC2 DiscoveRx read-out); type: in vitro ADME
Summary of the method: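 Peptides preincubated overnight in rat serum at 37 °C without aprotinin versus 4 °C with aprotinin, then tested as 11-point 5× dilutions in duplicate on CHO-VPAC2 cells, 30 min at RT. cAMP measured by DiscoveRx kit against standards; EC50 derived for each aliquot.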

human PAC1 = target: T4, human PAC1 (Homo sapiens, UniProt P41586); test: Filter binding assay, 125I-labeled PACAP-27 tracer, PAC1 membranes; conditions: read-out: Human PAC1 Receptor Binding (IC50; nM)
T4 construct: expressed in transfected cells
T4 sequence (P41586 21-468): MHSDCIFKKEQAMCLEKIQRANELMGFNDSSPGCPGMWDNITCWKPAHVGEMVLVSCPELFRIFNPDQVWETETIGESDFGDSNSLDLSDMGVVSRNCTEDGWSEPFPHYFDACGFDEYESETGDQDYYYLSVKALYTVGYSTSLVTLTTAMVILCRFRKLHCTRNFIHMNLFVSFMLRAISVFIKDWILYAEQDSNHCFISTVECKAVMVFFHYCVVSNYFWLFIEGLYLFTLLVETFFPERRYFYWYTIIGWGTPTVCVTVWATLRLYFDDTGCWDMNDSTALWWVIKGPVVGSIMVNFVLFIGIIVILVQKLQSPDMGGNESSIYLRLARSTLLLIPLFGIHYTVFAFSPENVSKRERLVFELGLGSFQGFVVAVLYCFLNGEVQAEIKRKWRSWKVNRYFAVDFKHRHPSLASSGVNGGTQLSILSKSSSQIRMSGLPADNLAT

SMILES | EC50 (rat VPAC2 receptor) [nM] | IC50 (human VPAC1) [nM] | IC50 (human VPAC2 [1]) [nM] | EC50 (human VPAC2 [2]) [nM] | Rat Serum Stability (estimated purity in % after overnight incub.) [3] [%] | IC50 (human PAC1) [nM]
CCCCCC(=O)N[C@@H](Cc1c[nH]cn1)C(=O)N[C@@H](CO)C(=O)N[C@@H](CC(=O)O)C(=O)N[C@@H](C)C(=O)N[C@H](C(=O)N[C@@H](Cc1ccccc1)C(=O)N[C@H](C(=O)N[C@@H](CCC(=O)O)C(=O)N[C@@H](CCC(N)=O)C(=O)N[C@@H](Cc1ccc(OC)cc1)C(=O)N[C@H](C(=O)N[C@@H](CCCN)C(=O)N[C@@H](CC(C)C)C(=O)N[C@@H](CCCNC(=N)N)C(=O)NC(C)(C)C(=O)N[C@@H](CCC(N)=O)C(=O)N[C@@H](CC(C)C)C(=O)N[C@@H](C)C(=O)N[C@@H](C)C(=O)NC(C)(C)C(=O)N[C@@H](CCCN)C(=O)N[C@@H](Cc1ccc(O)cc1)C(=O)N[C@@H](CC(C)C)C(=O)N[C@@H](CCC(N)=O)C(=O)N[C@@H](CO)C(=O)N[C@H](C(=O)N[C@@H](CCCN)C(=O)N[C@@H](CCCN)C(=O)NCC(=O)NCC(=O)N1CCC[C@H]1C(=O)N[C@@H](CO)C(=O)N[C@@H](CO)C(=O)NCC(=O)N[C@@H](C)C(=O)N1CCC[C@H]1C(=O)N1CCC[C@H]1C(=O)N1CCC[C@H]1C(=O)N[C@@H](CO)C(N)=O)[C@@H](C)CC)[C@@H](C)O)[C@@H](C)O)C(C)C [Agonist P487] (Hexanoyl-HSDAVFTEQY(Me)T[Orn]LR[Aib]QLAA[Aib][Orn]YLQSI[Orn][Orn]GGPSSGAPPPS-NH2) | 0.03 | > 1000 | 0.64 | 0.24 | 76.98 | 
CCCCCC(=O)N[C@@H](Cc1c[nH]cn1)C(=O)N[C@@H](CO)C(=O)N[C@@H](CC(=O)O)C(=O)N[C@@H](C)C(=O)N[C@H](C(=O)N[C@@H](Cc1ccccc1)C(=O)N[C@H](C(=O)N[C@@H](CC(=O)O)C(=O)N[C@@H](CC(N)=O)C(=O)N[C@@H](Cc1ccc(O)cc1)C(=O)N[C@H](C(=O)N[C@@H](CCCN)C(=O)N[C@@H](CC(C)C)C(=O)N[C@@H](CCCNC(=N)N)C(=O)NC(C)(C)C(=O)N[C@@H](CO)C(=O)N[C@H](C(=O)N[C@@H](C)C(=O)N[C@@H](C)C(=O)NC(C)(C)C(=O)N[C@@H](CCCCN)C(=O)N[C@@H](Cc1ccc(O)cc1)C(=O)N[C@@H](CC(C)C)C(=O)N[C@@H](CCC(N)=O)C(=O)N[C@@H](CO)C(=O)N[C@H](C(=O)N[C@@H](CCCN)C(=O)N[C@@H](CC(N)=O)C(=O)N[C@@H](CCCN)C(=O)NCC(=O)NCC(=O)N1CCC[C@H]1C(=O)N[C@@H](CO)C(=O)N[C@@H](CO)C(=O)NCC(=O)N[C@@H](C)C(=O)N1CCC[C@H]1C(=O)N1CCC[C@H]1C(=O)N1CCC[C@H]1C(=O)N[C@@H](CO)C(=O)O)[C@@H](C)CC)C(C)C)[C@@H](C)O)[C@@H](C)O)C(C)C [Agonist P390] (Hexanoyl-HSDAVFTDNYT[Orn]LR[Aib]SVAA[Aib]KYLQSI[Orn]N[Orn]GGPSSGAPPPS-OH; C-terminus assumed) | 0.09 |  | 0.26 | 0.12 |  | > 25000
CCCCCC(=O)N[C@@H](Cc1c[nH]cn1)C(=O)N[C@@H](CO)C(=O)N[C@@H](CC(=O)O)C(=O)N[C@@H](C)C(=O)N[C@H](C(=O)N[C@@H](Cc1ccccc1)C(=O)N[C@H](C(=O)N[C@@H](CC(=O)O)C(=O)N[C@@H](CC(N)=O)C(=O)N[C@@H](Cc1ccc(O)cc1)C(=O)N[C@H](C(=O)N[C@@H](CC(C)C)C(=O)N[C@@H](CC(C)C)C(=O)N[C@@H](CCCNC(=N)N)C(=O)NC(C)(C)C(=O)N[C@@H](CCC(N)=O)C(=O)N[C@H](C(=O)N[C@@H](C)C(=O)N[C@@H](C)C(=O)NC(C)(C)C(=O)N[C@@H](CCCCN)C(=O)N[C@@H](Cc1ccc(O)cc1)C(=O)N[C@@H](CC(C)C)C(=O)N[C@@H](CCC(N)=O)C(=O)N[C@@H](CO)C(=O)N[C@H](C(=O)N[C@@H](CCCN)C(=O)N[C@@H](CC(N)=O)C(=O)N[C@@H](CCCN)C(=O)NCC(=O)NCC(=O)N1CCC[C@H]1C(=O)N[C@@H](CO)C(=O)N[C@@H](CO)C(=O)NCC(=O)N[C@@H](C)C(=O)N1CCC[C@H]1C(=O)N1CCC[C@H]1C(=O)N1CCC[C@H]1C(=O)N[C@@H](CO)C(=O)O)[C@@H](C)CC)C(C)C)[C@@H](C)O)[C@@H](C)O)C(C)C [Agonist P367] (Hexanoyl-HSDAVFTDNYTLLR[Aib]QVAA[Aib]KYLQSI[Orn]N[Orn]GGPSSGAPPPS-OH; C-terminus assumed) |  | > 3000 | > 100 |  | 55.82 | > 25000
CCCCCC(=O)N[C@@H](Cc1c[nH]cn1)C(=O)N[C@@H](CO)C(=O)N[C@@H](CC(=O)O)C(=O)N[C@@H](C)C(=O)N[C@H](C(=O)N[C@@H](Cc1ccccc1)C(=O)N[C@H](C(=O)N[C@@H](CC(=O)O)C(=O)N[C@@H](CCC(N)=O)C(=O)N[C@@H](Cc1ccc(O)cc1)C(=O)N[C@H](C(=O)N[C@@H](CCCN)C(=O)N[C@@H](CC(C)C)C(=O)N[C@@H](CCCNC(=N)N)C(=O)NC(C)(C)C(=O)N[C@@H](CCC(N)=O)C(=O)N[C@H](C(=O)N[C@@H](C)C(=O)N[C@@H](C)C(=O)NC(C)(C)C(=O)N[C@@H](CCCN)C(=O)N[C@@H](Cc1ccc(O)cc1)C(=O)N[C@@H](CC(C)C)C(=O)N[C@@H](CCC(N)=O)C(=O)N[C@@H](CO)C(=O)N[C@H](C(=O)N[C@@H](CCCN)C(=O)N[C@@H](CCCN)C(=O)NCC(=O)NCC(=O)N1CCC[C@H]1C(=O)N[C@@H](CO)C(=O)N[C@@H](CO)C(=O)NCC(=O)N[C@@H](C)C(=O)N1CCC[C@H]1C(=O)N1CCC[C@H]1C(=O)N1CCC[C@H]1C(=O)N[C@@H](CO)C(=O)O)[C@@H](C)CC)C(C)C)[C@@H](C)O)[C@@H](C)O)C(C)C [Agonist P396] (Hexanoyl-HSDAVFTDQYT[Orn]LR[Aib]QVAA[Aib][Orn]YLQSI[Orn][Orn]GGPSSGAPPPS-OH; C-terminus assumed) | 0.05 | > 3000 | 0.26 | 0.11 | 93.07 | > 25000
